Assay results from ChEMBL document CHEMBL4004849, “Tetrazolylmethyl quinolines: Design, docking studies, synthesis, anticancer and antifungal analyses” (2017).
Converted amounts (≈) assume the structure as drawn. The source made the active and inactive calls. No cut-off for these calls is given here.

Columns and labels:
Format in all cases: functional
[1] = tested on: NCI-H226; experiment: Growth inhibition of human NCI-H226 cells at 10^-5 M incubated for 48 hrs by sulforhodamine B assay relative to control
[2] = tested on: SF-295; experiment: Growth inhibition of human SF295 cells at 10^-5 M incubated for 48 hrs by sulforhodamine B assay relative to control
[3] = tested on: UACC-62; experiment: Growth inhibition of human UACC62 cells at 10^-5 M incubated for 48 hrs by sulforhodamine B assay relative to control
[4] = tested on: LOX IMVI; experiment: Growth inhibition of human LOXIMVI cells at 10^-5 M incubated for 48 hrs by sulforhodamine B assay relative to control
[5] = tested on: Aspergillus fumigatus; experiment: Antifungal activity against Aspergillus fumigatus after 24 hrs by serial dilution method
[6] = tested on: SR; experiment: Growth inhibition of human SR cells at 10^-5 M incubated for 48 hrs by sulforhodamine B assay relative to control
[7] = tested on: HCT-15; experiment: Growth inhibition of human HCT15 cells at 10^-5 M incubated for 48 hrs by sulforhodamine B assay relative to control
[8] = tested on: OVCAR-4; experiment: Growth inhibition of human OVCAR4 cells at 10^-5 M incubated for 48 hrs by sulforhodamine B assay relative to control
[9] = tested on: SK-MEL-2; experiment: Growth inhibition of human SK-MEL-2 cells at 10^-5 M incubated for 48 hrs by sulforhodamine B assay relative to control
[10] = tested on: UACC-257; experiment: Growth inhibition of human UACC257 cells at 10^-5 M incubated for 48 hrs by sulforhodamine B assay relative to control
[11] = tested on: MCF7; experiment: Growth inhibition of human MCF7 cells at 10^-5 M incubated for 48 hrs by sulforhodamine B assay relative to control
[12] = tested on: NCI-H460; experiment: Growth inhibition of human NCI-H460 cells at 10^-5 M incubated for 48 hrs by sulforhodamine B assay relative to control
[13] = tested on: Candida albicans; experiment: Antifungal activity against Candida albicans after 24 hrs by serial dilution method
[14] = tested on: OVCAR-3; experiment: Growth inhibition of human OVCAR3 cells at 10^-5 M incubated for 48 hrs by sulforhodamine B assay relative to control
[15] = tested on: M14; experiment: Growth inhibition of human M14 cells at 10^-5 M incubated for 48 hrs by sulforhodamine B assay relative to control
[16] = tested on: KM12; experiment: Growth inhibition of human KM12 cells at 10^-5 M incubated for 48 hrs by sulforhodamine B assay relative to control
[17] = tested on: HL-60(TB); experiment: Growth inhibition of human HL-60(TB) cells at 10^-5 M incubated for 48 hrs by sulforhodamine B assay relative to control
[18] = tested on: OVCAR-8; experiment: Growth inhibition of human OVCAR8 cells at 10^-5 M incubated for 48 hrs by sulforhodamine B assay relative to control
[19] = tested on: HCC 2998; experiment: Growth inhibition of human HCC2998 cells at 10^-5 M incubated for 48 hrs by sulforhodamine B assay relative to control
[20] = tested on: 786-0; experiment: Growth inhibition of human 786-0 cells at 10^-5 M incubated for 48 hrs by sulforhodamine B assay relative to control
[21] = tested on: ACHN; experiment: Growth inhibition of human ACHN cells at 10^-5 M incubated for 48 hrs by sulforhodamine B assay relative to control
[22] = tested on: UO-31; experiment: Growth inhibition of human UO31 cells at 10^-5 M incubated for 48 hrs by sulforhodamine B assay relative to control
[23] = tested on: Candida albicans; experiment: Antifungal activity against Candida albicans at 100 ug/ml by disc diffusion method; settings: read-out: IZ
[24] = tested on: BT-549; experiment: Growth inhibition of human BT549 cells at 10^-5 M incubated for 48 hrs by sulforhodamine B assay relative to control
[25] = tested on: MOLT-4; experiment: Growth inhibition of human MOLT4 cells at 10^-5 M incubated for 48 hrs by sulforhodamine B assay relative to control
[26] = tested on: SK-OV-3; experiment: Growth inhibition of human SKOV3 cells at 10^-5 M incubated for 48 hrs by sulforhodamine B assay relative to control
[27] = tested on: OVCAR-5; experiment: Growth inhibition of human OVCAR5 cells at 10^-5 M incubated for 48 hrs by sulforhodamine B assay relative to control
[28] = tested on: RXF 393; experiment: Growth inhibition of human RXF393 cells at 10^-5 M incubated for 48 hrs by sulforhodamine B assay relative to control
[29] = tested on: EKVX; experiment: Growth inhibition of human EKVX cells at 10^-5 M incubated for 48 hrs by sulforhodamine B assay relative to control
[30] = tested on: MDA-MB-231; experiment: Growth inhibition of human MDA-MB-231/ATCC cells at 10^-5 M incubated for 48 hrs by sulforhodamine B assay relative to control
[31] = tested on: NCI-H522; experiment: Growth inhibition of human NCI-H522 cells at 10^-5 M incubated for 48 hrs by sulforhodamine B assay relative to control
[32] = tested on: NCI-H23; experiment: Growth inhibition of human NCI-H23 cells at 10^-5 M incubated for 48 hrs by sulforhodamine B assay relative to control
[33] = tested on: A549; experiment: Growth inhibition of human A549/ATCC cells at 10^-5 M incubated for 48 hrs by sulforhodamine B assay relative to control
[34] = tested on: MDA-MB-468; experiment: Growth inhibition of human MDA-MB-468 cells at 10^-5 M incubated for 48 hrs by sulforhodamine B assay relative to control
[35] = tested on: Aspergillus fumigatus; experiment: Antifungal activity against Aspergillus fumigatus at 100 ug/ml by disc diffusion method; settings: read-out: IZ
[36] = tested on: SK-MEL-5; experiment: Growth inhibition of human SK-MEL-5 cells at 10^-5 M incubated for 48 hrs by sulforhodamine B assay relative to control
[37] = tested on: SNB-19; experiment: Growth inhibition of human SNB19 cells at 10^-5 M incubated for 48 hrs by sulforhodamine B assay relative to control
[38] = tested on: K562; experiment: Growth inhibition of human K562 cells at 10^-5 M incubated for 48 hrs by sulforhodamine B assay relative to control
[39] = tested on: MDA-MB-435; experiment: Growth inhibition of human MDA-MB-435 cells at 10^-5 M incubated for 48 hrs by sulforhodamine B assay relative to control
[40] = tested on: SN12C; experiment: Growth inhibition of human SN12C cells at 10^-5 M incubated for 48 hrs by sulforhodamine B assay relative to control
[41] = tested on: IGROV-1; experiment: Growth inhibition of human IGROV1 cells at 10^-5 M incubated for 48 hrs by sulforhodamine B assay relative to control
[42] = tested on: HCT-116; experiment: Growth inhibition of human HCT116 cells at 10^-5 M incubated for 48 hrs by sulforhodamine B assay relative to control
[43] = tested on: Malme-3M; experiment: Growth inhibition of human MALME-3M cells at 10^-5 M incubated for 48 hrs by sulforhodamine B assay relative to control
[44] = tested on: U-251; experiment: Growth inhibition of human U251 cells at 10^-5 M incubated for 48 hrs by sulforhodamine B assay relative to control
[45] = tested on: SK-MEL-28; experiment: Growth inhibition of human SK-MEL-28 cells at 10^-5 M incubated for 48 hrs by sulforhodamine B assay relative to control

SMILES: Fc1ccc2nc(Cl)c(Cn3nnnc3CSc3ccccc3)cc2c1
- growth inhibition (GI) [1]: Active
- growth inhibition (GI) [2]: Active
- growth inhibition (GI) [3]: Active
- growth inhibition (GI) [4]: Active
- MIC [5]: 2.5 µg/mL (≈ 6.48 µM)
- growth inhibition (GI) [6]: Active
- growth inhibition (GI) [7]: Active
- growth inhibition (GI) [8]: Active
- growth inhibition (GI) [9]: Active
- growth inhibition (GI) [10]: Active
- growth inhibition (GI) [11]: Active
- growth inhibition (GI) [12]: Active
- MIC [13]: 50 µg/mL (≈ 130 µM)
- growth inhibition (GI) [14]: Active
- growth inhibition (GI) [15]: Active
- growth inhibition (GI) [16]: Active
- growth inhibition (GI) [17]: Active
- growth inhibition (GI) [18]: Active
- growth inhibition (GI) [19]: Active
- growth inhibition (GI) [20]: Active
- growth inhibition (GI) [21]: Active
- growth inhibition (GI) [22]: Active
- zone of inhibition at 100 µg/mL [23]: 13 mm
- growth inhibition (GI) [24]: Active
- growth inhibition (GI) [25]: Active
- growth inhibition (GI) [26]: Active
- growth inhibition (GI) [27]: Active
- growth inhibition (GI) [28]: Active
- growth inhibition (GI) [29]: Active
- growth inhibition (GI) [30]: Active
- growth inhibition (GI) [31]: Active
- growth inhibition (GI) [32]: Active
- growth inhibition (GI) [33]: Active
- growth inhibition (GI) [34]: Active
- zone of inhibition at 100 µg/mL [35]: 14 mm
- growth inhibition (GI) [36]: Active
- growth inhibition (GI) [37]: Active
- growth inhibition (GI) [38]: Active
- growth inhibition (GI) [39]: Active
- growth inhibition (GI) [40]: Active
- growth inhibition (GI) [41]: Active
- growth inhibition (GI) [42]: Active
- growth inhibition (GI) [43]: Active
- growth inhibition (GI) [44]: Active
- growth inhibition (GI) [45]: Active
